For this experiment, the target named is T1, Sortilin (Homo sapiens, UniProt Q99523).
T1 sequence (Q99523 whole entry): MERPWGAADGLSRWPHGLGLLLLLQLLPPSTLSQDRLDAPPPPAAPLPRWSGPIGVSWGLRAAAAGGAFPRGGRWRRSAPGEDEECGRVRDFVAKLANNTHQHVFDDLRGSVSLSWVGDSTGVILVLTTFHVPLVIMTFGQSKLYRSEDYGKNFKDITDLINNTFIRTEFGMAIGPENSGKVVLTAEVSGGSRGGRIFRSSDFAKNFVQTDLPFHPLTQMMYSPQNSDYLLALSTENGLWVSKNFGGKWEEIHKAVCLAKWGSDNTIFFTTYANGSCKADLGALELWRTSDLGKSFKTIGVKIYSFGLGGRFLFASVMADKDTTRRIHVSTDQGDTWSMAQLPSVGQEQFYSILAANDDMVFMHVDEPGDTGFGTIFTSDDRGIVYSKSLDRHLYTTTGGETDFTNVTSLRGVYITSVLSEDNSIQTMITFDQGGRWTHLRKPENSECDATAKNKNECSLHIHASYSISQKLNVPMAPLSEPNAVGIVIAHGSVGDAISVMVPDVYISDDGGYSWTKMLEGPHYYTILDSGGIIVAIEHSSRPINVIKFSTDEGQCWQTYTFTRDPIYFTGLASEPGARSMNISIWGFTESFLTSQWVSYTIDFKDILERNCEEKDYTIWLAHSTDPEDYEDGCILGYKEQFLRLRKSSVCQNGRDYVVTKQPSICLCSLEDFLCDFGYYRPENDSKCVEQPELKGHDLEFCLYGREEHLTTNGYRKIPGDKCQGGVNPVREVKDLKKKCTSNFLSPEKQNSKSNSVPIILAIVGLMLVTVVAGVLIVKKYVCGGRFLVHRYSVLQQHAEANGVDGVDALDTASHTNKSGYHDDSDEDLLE
The experiment in a line: Binding affinity to 6-His tagged sortilin (unknown origin) assessed as equilibrium dissociation constant by MST analysis.
Turning to `CC(C)(C)CC[C@H](NC(=O)c1ccc(Oc2cccc(C(=O)NCCOCCOCCOCCOCCOCCNc3ncc(-c4ccc5c(n4)N(Cc4cccnc4C#N)C(C)(C)C5=O)cn3)c2)nc1)C(=O)O`, the dissociation constant (Kd) was under 1 nM. Next, `C[C@@H]1CN(c2ncc(-c3ccc4c(n3)N(Cc3cccnc3C#N)C(C)(C)C4=O)cn2)CCN1C(=O)COCCCCNC(=O)c1cccc(Oc2ccc(C(=O)N[C@@H](CCC(C)(C)C)C(=O)O)cn2)c1`: under 1 nM; `CC(C)(C)CC[C@H](NC(=O)c1ccc(Oc2cccc(C(=O)NCCOCCOCCOCCOCCOCCOc3ncc(-c4ccc5c(n4)N(Cc4cccnc4C#N)C(C)(C)C5=O)cn3)c2)nc1)C(=O)O`: under 1 nM. With `C[C@@H]1CN(c2ncc(-c3ccc4c(n3)N(Cc3cccnc3C#N)C(C)(C)C4=O)cn2)CCN1C(=O)COCCCCCCCCNC(=O)c1cccc(Oc2ccc(C(=O)N[C@@H](CCC(C)(C)C)C(=O)O)cn2)c1`, the Kd was under 1 nM.

As to `CC(C)(C)CC[C@H](NC(=O)c1ccc(Oc2cccc(OCCOCCOCCOCCOCCOCCOCCNC(=O)CCC[C@@H]3SC[C@@H]4NC(=O)N[C@@H]43)c2)nc1)C(=O)O`, the Kd worked out at 1 nM. The result for `C[C@@H]1CN(c2ncc(-c3ccc4c(n3)N(Cc3cccnc3C#N)C(C)(C)C4=O)cn2)CCN1C(=O)CNC(=O)CCCCCCCCCNC(=O)c1cccc(Oc2ccc(C(=O)N[C@@H](CCC(C)(C)C)C(=O)O)cn2)c1` reads under 1 nM.
